Results reported in publication PMC12073402, “A Selective MAP3K1 Inhibitor Facilitates Discovery of NPM1 as a Member of the Network” (Molecules, 2025).

Experiments:
Assay in all cases: KiNativ kinome profiling in PANC-1 lysate
Assay type in all cases: binding
LOK = target: T1, LOK (Homo sapiens, UniProt O94804)
T1 construct: we opted to conduct a kinome screen (KiNativ) in PANC-1 cell lysates; endogenous in cells; host or cells: PANC-1 cell lysate
Summary of the method: (§1)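 PANC-1 lysates were incubated with 5 μM inhibitor or DMSO, then labeled with a desthiobiotin-ATP acyl-phosphate probe that biotinylates conserved kinase lysines. Tryptic peptides were streptavidin-enriched and quantified by LC-MS/MS, reported as % change in MS signal from duplicate treated and duplicate control samples.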

PIP5K1A = target: T2, PIP5K1A (Homo sapiens, UniProt Q99755); conditions: ATP
T2 construct: endogenous in cells; host or cells: PANC-1 cell lysate
T2 sequence (Q99755 whole entry): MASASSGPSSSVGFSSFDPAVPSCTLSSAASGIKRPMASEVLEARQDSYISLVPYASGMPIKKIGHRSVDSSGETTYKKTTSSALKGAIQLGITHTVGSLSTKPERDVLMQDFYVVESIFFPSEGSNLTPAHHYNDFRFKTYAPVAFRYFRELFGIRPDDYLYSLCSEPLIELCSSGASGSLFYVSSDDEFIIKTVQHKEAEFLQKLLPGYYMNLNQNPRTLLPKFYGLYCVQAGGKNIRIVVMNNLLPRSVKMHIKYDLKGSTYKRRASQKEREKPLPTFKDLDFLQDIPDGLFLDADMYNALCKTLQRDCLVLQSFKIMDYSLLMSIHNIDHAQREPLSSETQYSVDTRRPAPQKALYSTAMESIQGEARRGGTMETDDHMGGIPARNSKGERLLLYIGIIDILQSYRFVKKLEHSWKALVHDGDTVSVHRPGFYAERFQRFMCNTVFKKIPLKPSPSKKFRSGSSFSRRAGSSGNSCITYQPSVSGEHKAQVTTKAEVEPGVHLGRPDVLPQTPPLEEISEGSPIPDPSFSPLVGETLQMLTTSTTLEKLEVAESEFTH
Summary of the method: as §1

CRK7 = target: T3, CRK7 (Homo sapiens, UniProt Q9NYV4); conditions: Lys2
T3 construct: endogenous in cells; host or cells: PANC-1 cell lysate
Summary of the method: as §1

EphB4 = target: T4, EphB4 (Homo sapiens, UniProt P54760); conditions: ATP Loop
T4 construct: endogenous in cells; host or cells: PANC-1 lysate
Summary of the method: as §1

ATR = target: T5, ATR (Homo sapiens, UniProt Q13535); conditions: ATP
T5 construct: endogenous in cells; host or cells: PANC-1 cell lysate
Summary of the method: as §1

TAK1 = target: T6, TAK1 (Homo sapiens, UniProt O43318); conditions: Lys2
T6 construct: endogenous in cells; host or cells: PANC-1 cell lysate
Summary of the method: as §1

IKKa = target: T7, IKKa (Homo sapiens, UniProt O15111); conditions: Lys2
T7 construct: we opted to conduct a kinome screen (KiNativ) in PANC-1 cell lysates; endogenous in cells; host or cells: PANC-1 cell lysate
Summary of the method: as §1

DRAK1 = target: T8, DRAK1 (Homo sapiens, UniProt Q9UEE5); conditions: Lys2
T8 construct: endogenous in cells; host or cells: PANC-1 lysate
Summary of the method: as §1

FER = target: T9, FER (Homo sapiens, UniProt P16591)
T9 construct: endogenous in cells; host or cells: PANC-1 lysate
T9 sequence (P16591 whole entry): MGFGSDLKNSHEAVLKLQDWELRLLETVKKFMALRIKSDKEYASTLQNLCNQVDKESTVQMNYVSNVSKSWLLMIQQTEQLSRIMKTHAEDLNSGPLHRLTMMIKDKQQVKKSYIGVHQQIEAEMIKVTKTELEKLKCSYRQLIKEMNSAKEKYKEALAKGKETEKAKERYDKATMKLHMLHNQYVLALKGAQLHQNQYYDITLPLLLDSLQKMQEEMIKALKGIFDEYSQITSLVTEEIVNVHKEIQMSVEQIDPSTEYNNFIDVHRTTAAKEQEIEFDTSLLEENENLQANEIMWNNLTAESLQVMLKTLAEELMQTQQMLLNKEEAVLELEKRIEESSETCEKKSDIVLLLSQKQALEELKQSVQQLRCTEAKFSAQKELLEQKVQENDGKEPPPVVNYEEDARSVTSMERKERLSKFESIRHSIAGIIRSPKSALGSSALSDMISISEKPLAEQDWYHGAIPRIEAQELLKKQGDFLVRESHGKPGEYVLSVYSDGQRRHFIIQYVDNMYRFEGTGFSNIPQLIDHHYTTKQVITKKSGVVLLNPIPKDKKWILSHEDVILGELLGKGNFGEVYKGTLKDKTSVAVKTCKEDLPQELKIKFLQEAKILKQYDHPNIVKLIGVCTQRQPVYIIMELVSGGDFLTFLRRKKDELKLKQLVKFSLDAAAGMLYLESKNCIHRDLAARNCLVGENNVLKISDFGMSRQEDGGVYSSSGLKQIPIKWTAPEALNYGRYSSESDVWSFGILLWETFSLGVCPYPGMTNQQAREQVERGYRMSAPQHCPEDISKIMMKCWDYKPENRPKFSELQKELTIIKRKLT
Summary of the method: as §1

NuaK2 = target: T10, NuaK2 (Homo sapiens, UniProt Q9H093); conditions: Lys1
T10 construct: endogenous in cells; host or cells: PANC-1 cell lysate
Summary of the method: as §1

CCRK = target: T11, CCRK (Homo sapiens, UniProt Q8IZL9); conditions: Lys2
T11 construct: endogenous in cells; host or cells: PANC-1 cell lysate
Summary of the method: as §1

AGK = target: T12, AGK (Homo sapiens, UniProt Q53H12); conditions: ATP
T12 construct: endogenous in cells; host or cells: PANC-1 cell lysate
Summary of the method: as §1

MAST1, MAST2 = conditions: 5 µM; Lys2; DLKPDNLLITSMGHIK
Summary of the method: as §1

PLK2 = target: T13, PLK2 (Homo sapiens, UniProt Q9NYY3); conditions: Lys2
T13 construct: endogenous in cells; host or cells: PANC-1 cell lysate
Summary of the method: as §1

EphB3 = target: T14, EphB3 (Homo sapiens, UniProt P54753); conditions: ATP Loop
T14 construct: endogenous in cells; host or cells: PANC-1 lysate
Summary of the method: as §1

Wnk1, Wnk2, Wnk3 = conditions: 5 µM; Lys2; DLKCDNIFITGPTGSVK
Summary of the method: as §1

HCK = target: T15, HCK (Homo sapiens, UniProt P08631)
T15 construct: we opted to conduct a kinome screen (KiNativ) in PANC-1 cell lysates; endogenous in cells; host or cells: PANC-1 cell lysate
T15 sequence (P08631 whole entry): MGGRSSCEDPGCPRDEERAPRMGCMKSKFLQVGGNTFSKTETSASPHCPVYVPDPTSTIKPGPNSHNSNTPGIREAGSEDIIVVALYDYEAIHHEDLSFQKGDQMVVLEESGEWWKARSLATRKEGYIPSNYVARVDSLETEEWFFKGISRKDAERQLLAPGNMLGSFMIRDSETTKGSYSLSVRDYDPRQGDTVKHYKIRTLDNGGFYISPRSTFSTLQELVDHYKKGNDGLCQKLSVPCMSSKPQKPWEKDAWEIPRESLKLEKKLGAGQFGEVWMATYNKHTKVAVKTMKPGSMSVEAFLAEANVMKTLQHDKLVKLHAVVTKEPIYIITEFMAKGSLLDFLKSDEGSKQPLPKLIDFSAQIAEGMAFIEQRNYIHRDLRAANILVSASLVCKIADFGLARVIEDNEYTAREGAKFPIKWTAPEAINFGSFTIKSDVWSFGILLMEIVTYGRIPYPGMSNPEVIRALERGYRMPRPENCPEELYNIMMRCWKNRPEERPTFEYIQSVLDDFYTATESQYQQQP
Summary of the method: as §1

IKKe, TBK1 = conditions: 5 µM; Lys2; DIKPGNIMR
Summary of the method: as §1

SRPK1 = target: T16, SRPK1 (Homo sapiens, UniProt Q96SB4); conditions: Lys2
T16 construct: endogenous in cells; host or cells: PANC-1 cell lysate
Summary of the method: as §1

MSK2 domain1 = target: T17, MSK2 domain1 (Homo sapiens, UniProt O75676)
T17 construct: endogenous in cells; host or cells: PANC-1
T17 sequence (O75676 whole entry, the tested form may be a part): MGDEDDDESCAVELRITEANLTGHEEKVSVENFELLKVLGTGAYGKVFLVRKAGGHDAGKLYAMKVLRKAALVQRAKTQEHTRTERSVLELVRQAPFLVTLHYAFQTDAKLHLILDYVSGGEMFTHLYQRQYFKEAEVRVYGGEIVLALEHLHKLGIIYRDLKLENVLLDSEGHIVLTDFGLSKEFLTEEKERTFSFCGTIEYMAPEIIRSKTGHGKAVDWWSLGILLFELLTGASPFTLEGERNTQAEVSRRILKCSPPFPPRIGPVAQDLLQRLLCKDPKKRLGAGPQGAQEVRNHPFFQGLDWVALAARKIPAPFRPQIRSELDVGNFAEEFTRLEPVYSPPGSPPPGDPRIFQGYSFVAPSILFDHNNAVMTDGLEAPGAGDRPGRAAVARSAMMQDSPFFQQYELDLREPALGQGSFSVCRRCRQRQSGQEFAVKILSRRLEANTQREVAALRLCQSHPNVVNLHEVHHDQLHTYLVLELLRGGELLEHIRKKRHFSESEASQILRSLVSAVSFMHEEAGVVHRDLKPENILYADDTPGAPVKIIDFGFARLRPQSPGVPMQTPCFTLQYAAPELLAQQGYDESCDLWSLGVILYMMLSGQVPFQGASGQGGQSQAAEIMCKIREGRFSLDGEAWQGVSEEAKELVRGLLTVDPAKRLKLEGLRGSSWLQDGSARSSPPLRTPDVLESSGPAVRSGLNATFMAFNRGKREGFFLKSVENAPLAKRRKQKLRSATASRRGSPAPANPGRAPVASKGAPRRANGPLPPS
Summary of the method: as §1

MAP4K3 = target: T18, MAP4K3 (Homo sapiens, UniProt Q8IVH8)
T18 construct: endogenous in cells; host or cells: PANC-1 cell lysate
T18 sequence (Q8IVH8 whole entry): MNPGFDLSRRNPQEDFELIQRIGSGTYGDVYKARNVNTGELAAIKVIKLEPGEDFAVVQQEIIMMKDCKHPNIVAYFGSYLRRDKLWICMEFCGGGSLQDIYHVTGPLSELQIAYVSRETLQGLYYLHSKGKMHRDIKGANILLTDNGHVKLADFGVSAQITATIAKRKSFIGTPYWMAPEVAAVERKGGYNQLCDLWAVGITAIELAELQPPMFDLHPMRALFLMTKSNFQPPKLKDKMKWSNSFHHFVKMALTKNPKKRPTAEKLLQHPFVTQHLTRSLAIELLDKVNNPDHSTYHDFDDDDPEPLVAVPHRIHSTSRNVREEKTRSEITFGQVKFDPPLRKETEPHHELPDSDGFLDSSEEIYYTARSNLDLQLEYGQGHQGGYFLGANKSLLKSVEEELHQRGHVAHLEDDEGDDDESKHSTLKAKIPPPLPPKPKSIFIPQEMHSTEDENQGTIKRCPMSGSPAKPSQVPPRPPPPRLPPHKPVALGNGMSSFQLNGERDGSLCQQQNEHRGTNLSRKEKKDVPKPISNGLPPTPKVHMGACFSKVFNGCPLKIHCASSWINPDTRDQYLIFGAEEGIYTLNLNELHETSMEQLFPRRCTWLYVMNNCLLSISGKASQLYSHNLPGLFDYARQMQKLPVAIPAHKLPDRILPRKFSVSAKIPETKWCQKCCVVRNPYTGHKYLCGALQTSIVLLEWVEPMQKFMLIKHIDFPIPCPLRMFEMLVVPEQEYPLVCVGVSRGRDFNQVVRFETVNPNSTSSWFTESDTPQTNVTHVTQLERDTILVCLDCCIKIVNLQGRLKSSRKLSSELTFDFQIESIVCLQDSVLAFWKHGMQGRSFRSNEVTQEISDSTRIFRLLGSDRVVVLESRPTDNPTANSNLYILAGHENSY
Summary of the method: as §1

HER2/ErbB2 = target: T19, HER2/ErbB2 (Homo sapiens, UniProt P04626)
T19 construct: we opted to conduct a kinome screen (KiNativ) in PANC-1 cell lysates; endogenous in cells; host or cells: PANC-1 cell lysate
T19 sequence (P04626 23-1255): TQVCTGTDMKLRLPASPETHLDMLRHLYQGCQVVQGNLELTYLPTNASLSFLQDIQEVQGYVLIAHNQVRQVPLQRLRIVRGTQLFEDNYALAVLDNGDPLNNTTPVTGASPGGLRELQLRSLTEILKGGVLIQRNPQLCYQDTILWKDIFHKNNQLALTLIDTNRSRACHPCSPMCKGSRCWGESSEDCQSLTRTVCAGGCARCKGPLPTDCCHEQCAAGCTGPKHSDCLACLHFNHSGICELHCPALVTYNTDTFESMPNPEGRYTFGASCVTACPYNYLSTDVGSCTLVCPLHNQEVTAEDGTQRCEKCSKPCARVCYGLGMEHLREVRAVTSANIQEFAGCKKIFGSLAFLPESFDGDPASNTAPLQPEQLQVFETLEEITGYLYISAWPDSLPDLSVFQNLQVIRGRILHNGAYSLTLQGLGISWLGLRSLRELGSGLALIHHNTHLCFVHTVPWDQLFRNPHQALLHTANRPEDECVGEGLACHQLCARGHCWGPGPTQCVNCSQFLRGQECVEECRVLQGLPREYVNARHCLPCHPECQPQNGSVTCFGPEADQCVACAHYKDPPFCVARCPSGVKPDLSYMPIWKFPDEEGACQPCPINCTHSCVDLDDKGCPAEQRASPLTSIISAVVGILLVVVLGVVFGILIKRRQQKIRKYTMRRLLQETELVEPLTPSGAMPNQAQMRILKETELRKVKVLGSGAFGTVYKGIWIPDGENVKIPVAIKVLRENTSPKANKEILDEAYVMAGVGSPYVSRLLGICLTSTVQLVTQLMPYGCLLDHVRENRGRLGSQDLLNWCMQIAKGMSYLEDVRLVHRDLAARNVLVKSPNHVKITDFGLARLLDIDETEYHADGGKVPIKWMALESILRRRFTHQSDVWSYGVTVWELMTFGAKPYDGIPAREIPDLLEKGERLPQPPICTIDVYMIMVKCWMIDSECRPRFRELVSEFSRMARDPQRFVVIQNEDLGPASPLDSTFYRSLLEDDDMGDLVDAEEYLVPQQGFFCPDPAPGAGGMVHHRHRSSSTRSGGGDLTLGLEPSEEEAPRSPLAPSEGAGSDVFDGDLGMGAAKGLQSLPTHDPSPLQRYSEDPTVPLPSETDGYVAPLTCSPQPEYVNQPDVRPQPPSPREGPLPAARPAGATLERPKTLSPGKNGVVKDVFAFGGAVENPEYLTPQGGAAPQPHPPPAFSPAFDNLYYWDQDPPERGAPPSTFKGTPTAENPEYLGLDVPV
Summary of the method: as §1

NEK4 = target: T20, NEK4 (Homo sapiens, UniProt P51957); conditions: Lys2
T20 construct: endogenous in cells; host or cells: PANC-1 cell lysate
Summary of the method: as §1

RON = target: T21, RON (Homo sapiens, UniProt Q04912); conditions: Lys1
T21 construct: endogenous in cells; host or cells: PANC-1 cell lysate
Summary of the method: as §1

Wnk1, Wnk2 = conditions: 5 µM; ATP Loop; GSFKTVYK
Summary of the method: as §1

PKN2 = target: T22, PKN2 (Homo sapiens, UniProt Q16513); conditions: Lys2
T22 construct: endogenous in cells; host or cells: PANC-1 cell lysate
Summary of the method: as §1

With Cn1cc(-c2cnc3ccc(NC(=O)Nc4ccc(F)c(C(F)(F)F)c4)cc3n2)cn1 [51-106, 1-(4-Fluoro-3-(trifluoromethyl)phenyl)-3-(3-(1-methyl-1H-pyrazol-4-yl)quinoxalin-6-yl)urea] the “% Inhibition” value (LOK; 5 µM, Lys1, NKETGALAAAKVIETK) was “NB (NB = No Binding (≤ 0))”, the inhibition at 5 µM (LOK; Lys2, […]) was ≤ 0% and the inhibition at 5 µM (PIP5K1A) was 8.7%. For the same molecule, the inhibition at 5 µM (CRK7) was 14.3%, the inhibition at 5 µM (EphB4) was 1.6% and the inhibition at 5 µM (ATR) was 2.2%. For the same molecule, the inhibition at 5 µM (TAK1) was ≤ 0%, the inhibition at 5 µM (IKKa) was ≤ 0% and the inhibition at 5 µM (DRAK1) was ≤ 0%. For the same molecule, the “% Inhibition” value (FER; 5 µM, ATP Loop, QEDGGVYSSSGLKQIPIK) was “NB (NB = No Binding (≤ 0))”, the inhibition at 5 µM (FER; Lys1, […]) was ≤ 0% and the inhibition at 5 µM (NuaK2) was 2.2%. For the same molecule, the inhibition at 5 µM (CCRK) was 4.5%, the inhibition at 5 µM (AGK) was ≤ 0% and the “% Inhibition” value (MAST1, MAST2) was “NB (NB = No Binding (≤ 0))”. For the same molecule, the inhibition at 5 µM (PLK2) was 1.4%, the inhibition at 5 µM (EphB3) was 1.6% and the “% Inhibition” value (Wnk1, Wnk2, Wnk3) was 10.6%. For the same molecule, the “% Inhibition” value (HCK; 5 µM, ATP Loop, EGAKFPIKWTAPEAINFGSFTIK) was “NB (NB = No Binding (≤ 0))”, the inhibition at 5 µM (HCK; Lys1, […]) was ≤ 0% and the “% Inhibition” value (IKKe, TBK1) was 10.6%. The inhibition at 5 µM (SRPK1) was 4.4%, the inhibition at 5 µM (MSK2 domain1; Lys1, LYAMKVLR) was 5.5% and the inhibition at 5 µM (MSK2 domain1; Lys2, DLKLENVLLDSEGHIVLTDFGLSK) was ≤ 0%. The inhibition at 5 µM (MAP4K3; Lys1, NVNTGELAAIKVIK) was 4.7%, the inhibition at 5 µM (MAP4K3; Lys2, DIKGANILLTDNGHVK) was ≤ 0% and the inhibition at 5 µM (HER2/ErbB2; ATP Loop, LLDIDETEYHADGGKVPIK) was ≤ 0%. The inhibition at 5 µM (HER2/ErbB2; Lys1, GIWIPDGENVKIPVAIKVLR) was 15.6%, the inhibition at 5 µM (NEK4) was 5.8% and the inhibition at 5 µM (RON) was ≤ 0%. The “% Inhibition” value (Wnk1, Wnk2) was “NB (NB = No Binding (≤ 0))” and the inhibition at 5 µM (PKN2) was 3.7%.
